EC50, IC50 and outcome data for 49 compounds are collected here from PubChem BioAssay AID179 (DTP/NCI, 2004).

The assay concerns CEM cells HIV-1 protection, formazan growth assay. As to the kind of experiment: NCI AIDS Antiviral Assay. The note with it: for IC50: measured here: growth of uninfected CEM cells. The method in brief:
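Soluble formazan readout of cell growth; CEM cells ± HIV-1; 5 drug concs. ≥50% protection → retest; ≥50% again = moderately active; reproducible 100% = confirmed active.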

Broadly, the EC50 is the midpoint of the concentration-response curve. Usually IC50 stands for the concentration that inhibits the measured activity by half. Lower therefore signals higher potency.

Where “and” joins values, the source holds several entries; their conditions need not be identical. Equal values may be shown once. Calls of active or inactive are those of the source.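 Rule for the calls: active = compounds giving half or more protection of infected cells from virus-caused growth loss, again on retest; inactive = the rest.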

`O=[N+]([O-])c1cccc(C2SCc3nc4ccccc4n32)c1` (stereo not given): the EC50 is greater than 60.3 µM and the IC50 amounted to 37.2 µM.
For `Cc1[nH]c(=O)[nH]c(=O)c1C(=O)O`, the EC50 was greater than 200 µM and the IC50 is greater than 200 µM.
Consider `COc1cc2c(cc1OCCCN1C(=O)c3cccc4cccc(c34)C1=O)N=C[C@@H]1CCCN1C2=O`, for which the EC50 was 5.13 µM and the IC50 was found to be 13.2 µM.
In the case of `O=C(NNC(c1ccccc1)C(F)(F)F)c1ccncc1` (stereo not given), the EC50 is greater than 200 µM and the IC50 is greater than 200 µM.
Regarding `COC(=O)C1C2c3ccccc3-c3ccccc3C2(OC(C)=O)[C@@]1(Cl)C(=O)OC` (stereo not given in full), the EC50 was greater than 43.7 µM and the IC50 stood at 6.61 µM.
For the compound `CCc1ccccc1NC(=O)/C(N=O)=C(/C)O`, the EC50 is greater than 151 µM and the IC50 is greater than 151 µM.
For `C/C(CC(=O)Nc1cccc(C)c1C)=N\NC(N)=S`, the EC50 is greater than 468 µM and the IC50 came to 245 µM.
For `COP1(=O)Oc2ccccc2C(=O)C(C(F)(F)F)(C(F)(F)F)O1` (stereo not given) the same measures were greater than 692 µM and 295 µM.
For `O=C(Nc1nc2ccc([N+](=O)[O-])cc2s1)C(=O)C(C1OC(=O)c2ccccc21)[N+](=O)[O-]` (stereo not given) the same measures were greater than 81.3 µM and 51.3 µM.
For `CCOC(=O)/C(=C/c1ccc[nH]1)P(=O)(OCC)OCC`, in that order: greater than 437 µM and greater than 437 µM.
As to `CCCN(CCCCC(NC(C)=O)C(=O)NCc1ccccc1)C(=O)N(CCCl)N=O` (stereo not given), the EC50 was greater than 79.4 µM and the IC50 is greater than 79.4 µM.
As to `C=C(C)CCNCC/C=C\[Si](C)(C)C`, the EC50 is greater than 1170 µM and the IC50 was greater than 1170 µM.
Regarding `COc1cccc2c(SCC(=O)Nc3ccccc3-c3ccccc3NC(=O)CSc3c4ccccc4nc4c(OC)cccc34)c3ccccc3nc12`, the outcome was inactive.
In the case of `N/N=c1\c2ccccc2c2cc3c(cc12)/c(=N/N)c1ccccc13`, the EC50 is greater than 17 µM and the IC50 was greater than 17 µM.
`Nc1nc2c(c(=O)[nH]1)C(c1ccccc1)CC(=O)N2` (stereo not given): the EC50 is greater than 200 µM and the IC50 was greater than 200 µM.
Consider `O=c1cc(N2CCCC2)[nH]c(=O)n1-c1ccccc1`, for which the EC50 is greater than 200 µM and the IC50 was greater than 200 µM.
In the case of `COc1ccc(-c2c3c(n(C4OC(COC(C)=O)C(OC(C)=O)C(OC(C)=O)C4OC(C)=O)c(=S)c2C#N)CC(C)(C)CC3=O)cc1` (stereo not given), the EC50 is greater than 200 µM; the IC50 was 26.3 µM and 53.7 µM.
In the case of `C(/C=C/c1ccccc1)=Nc1ccc(SSc2ccc(N=C/C=C/c3ccccc3)cc2)cc1`, the EC50 was greater than 200 µM and the IC50 was 16.6 µM.
For `O=C(Nc1nc2ncn(CCI)c2c(=O)[nH]1)c1ccccc1`, the EC50 was greater than 63.1 µM and the IC50 was greater than 63.1 µM.
As for `CN(CC#N)[C@H]1CCC[C@]1(O)C#C[Si](C)(C)c1ccccc1`, the EC50 was greater than 16.6 µM and the IC50 is greater than 16.6 µM.
In the case of `C=C(C)[C@@H]1CC[C@]2(CO)CC[C@]3(C)[C@H](CC[C@@H]4[C@@]5(C)CC[C@H](O)C(C)(C)[C@@H]5CC[C@]43C)[C@@H]12`, the EC50 was 41.7 µM and the IC50 was 69.2 µM.
Take `Nc1cnn(C2OC(CO)C(F)C2F)c(=O)n1` (stereo not given): the EC50 was greater than 363 µM and the IC50 is greater than 363 µM.
Turning to `Cc1ccc2c(c1)Nc1ccccc1C(=O)N2`, the EC50 was greater than 200 µM and the IC50 was greater than 200 µM.
In the case of `C[N+](C)=c1nc(N2CCOCC2)ss1`, the result was inactive.
With `Cc1c([C@H](C)[C@@H]2NC[C@@H](C)C[C@H]2O)ccc2c1C[C@H]1[C@H]2CC=C2C[C@@H](O)CC[C@@]21C`, the EC50 was greater than 1.82 µM and the IC50 is greater than 1.82 µM.
For `COC(=O)NCC(OCc1cc2c(cc1I)OCO2)C1=CCCCC1` (stereo not given), the EC50 was greater than 29.5 µM and the IC50 is greater than 29.5 µM.
Take `CCN1C[C@]2(OC(=O)c3ccccc3NC(C)=O)CCC(OC)C34[C@@H]1[C@@](O)(C[C@@H]32)[C@@]1(O)C[C@H](OC)[C@@H]2C[C@@H]4[C@]1(O)C2OC` (stereo not given in full): the outcome was inactive.
Turning to `CCCCCC(=O)C(C)C1=Nc2nnc(CCCCCCCc3nnc4n3C(=O)C(C(C)C(=O)CCCCC)=N4)n2C1=O` (stereo not given), the EC50 is greater than 2.45 µM and the IC50 was greater than 2.45 µM.
Regarding `Cc1ccc(S(=O)(=O)c2scc(-c3ccccc3)c2C)cc1`, the EC50 was greater than 200 µM and the half-maximal inhibitory concentration (IC50) was 107 µM.
For `CS(=O)(=O)C(C#N)c1nc2ccccc2nc1Cl` (stereo not given), in that order: greater than 200 µM and greater than 200 µM.
For `Cc1cc(NS(=O)(=O)c2ccc(Nc3c4ccccc4nc4c(C(=O)NC=O)cccc34)cc2)no1` the same measures were greater than 200 µM and 12.3 µM.
For `COc1ccc(NC(=O)c2c(NC(=O)CN3CCOCC3)c(C#N)c3n2CCC3)cc1` the same measures were greater than 100 µM and greater than 100 µM.
In the case of `N#C/C(=C\c1ccc2c(c1)OCO2)c1ccccc1`, the EC50 was greater than 200 µM; the IC50 is 41.7 µM and > 28.8 µM.
On to `O=C1C2=Cc3ccccc3OC2(O)Oc2cc(O)cc(O)c21` (stereo not given), for which the EC50 was greater than 200 µM and the IC50 worked out at 91.2 µM.
For `CC(C)(C)CC(C)(C)c1cc2c(O)c(c1)Cc1cc(C(C)(C)CC(C)(C)C)cc(c1O)Cc1cc(C(C)(C)CC(C)(C)C)cc(c1O)Cc1cc(C(C)(C)CC(C)(C)C)cc(c1O)Cc1cc(C(C)(C)CC(C)(C)C)cc(c1O)C2`, in that order: greater than 8.71 µM and greater than 8.71 µM.
For `CC(C)CC1C(=O)NCCC(NC(=O)C(N)Cc2ccc(O)cc2)C(=O)NC(Cc2ccccc2)C(=O)NC(Cc2ccccc2)NC1=O` (stereo not given) the same measures were greater than 100 µM and greater than 100 µM.
For `N#Cc1c(N)[nH]c(S)c1C#N` the same measures were greater than 123 µM and 72.4 µM.
As for `COC(=O)CSC(=S)Nc1nnc(NC(=S)SCOC(C)=O)n1C(=S)SCC(=O)OC`, the EC50 is greater than 200 µM and the IC50 was greater than 200 µM.
Consider `COc1ccc(-c2cc(-c3ccccc3)nc3c2CC(=O)Nc2ccccc2-3)cc1OC`, for which the EC50 was greater than 100 µM and the IC50 came to 15.5 µM.
For `CC(=O)NC1C(OCc2ccccc2)OC(CO)C(O)C1OCC(=O)N1CCCC1C(=O)N[C@@H](CCC(=O)NCCCCNc1c2ccccc2nc2cccc([N+](=O)[O-])c12)C(N)=O` (stereo not given in full) the same measures were greater than 100 µM and 15.8 µM.
With `COc1ccc(C2=NOP(c3ccccc3)(c3ccccc3)(c3ccccc3)C2)cc1`, the EC50 was greater than 105 µM and the IC50 turned out to be 0.661 µM.
For `CC(=O)c1ccc(OCC(O)CO)cc1` (stereo not given) the same measures were greater than 617 µM and greater than 617 µM.
Regarding `[Au+].c1c[n-]cn1.c1ccc([PH+](c2ccccc2)c2ccccc2)cc1`, the EC50 was greater than 13.8 µM and the IC50 is 6.31 µM.
For `CC1CCN(c2nnc(Cl)cc2C(=O)c2ccccc2)CC1` the same measures were greater than 200 µM and 52.5 µM.
For `C(=C\C(Sc1ccccc1)c1ccccc1)/NNC1=NC(c2ccccc2)C(c2ccccc2)=NN1` (stereo not given), in that order: greater than 14.8 µM and greater than 14.8 µM.
For `CC1CC(C)S(=O)CS1` (stereo not given) the same measures were greater than 759 µM and greater than 759 µM.
With `CCC1=C2C(=O)c3ccccc3C2=C(C)S(=O)(=O)O1`, the EC50 is 257 µM and the IC50 came out at 263 µM.
For `CCc1n[nH]c(=O)n1CCCCCCCCCCCCn1c(CC)n[nH]c1=O` the same measures were greater than 200 µM and 41.7 µM.
For `COc1ccc(N2C(=O)C3CSCN3C2=O)cc1` (stereo not given) the same measures were greater than 200 µM and greater than 200 µM.
